Source: PMC3789652 (Journal of pharmaceutical sciences, 2011)

Experiments:
[1] = n-octanol / sodium phosphate buffer; assay type: physicochemical; conditions: n-octanol/sodium phosphate buffer pH 7.4, 0.15 M, room temperature; mean ± SD, n = 6
plasma proteins [2] = experiment: plasma free fraction by ultrafiltration, human plasma; assay type: in vitro ADME; conditions: mean ± SD, n = 3; for mlogDpr/pl Human: log10[(1−fp)/fp]; for fP Human: ultrafiltration, room temperature
plasma proteins [3] = experiment: plasma free fraction by ultrafiltration, monkey plasma; assay type: in vitro ADME, rhesus monkeys (Macaca mulatta); conditions: mean ± SD, n = 3; for fP Monkey: arterial monkey plasma, ultrafiltration, room temperature; for mlogDpr/pl Monkey: log10[(1−fp)/fp], monkey plasma

Compound | mlogD [1] | mlogDpr/pl Human (plasma proteins [2]) | fP Human (plasma proteins [2]) | fP Monkey (plasma proteins [3]) | mlogDpr/pl Monkey (plasma proteins [3])
N#Cc1cc(F)cc(C#Cc2csc(CF)n2)c1 [Radiotracer 4, 3-fluoro-5-(2-(2-(fluoromethyl)thiazol-4-yl)ethynyl)benzonitrile] | 2.18 ± 0.22 | 1.25 ± 0.13 | 0.0550 ± 0.0165 | – | –
CN([11CH3])C(=O)C(CCN1CCC(O)(c2ccc(Cl)cc2)CC1)(c1ccccc1)c1ccccc1 [Radiotracer 7, [N-methyl-^11C]N-desmethyl-loperamide] | – | – | 0.123 ± 0.015 | – | –
[2H]C([18F])Oc1cccc([C@H]2C[C@@H](N[C@H](C)c3ccccc3)C(=O)N2c2ccc(C(F)(F)F)cc2)c1 (stereo partly shown) [Radiotracer 18] | 4.24 ± 0.08 | 2.31 ± 0.14 | 0.0050 ± 0.0017 | 0.0041 ± 0.0001 | 2.39 ± 0.01
COc1ccccc1N1CCN(CCCCn2ncc(=O)n(C)c2=O)CC1 [Radiotracer 1, [O-methyl-^11C]2-(4-(4-(2-methoxyphenyl)piperazin-1-yl)butyl)-4-methyl-1,2,4-triazine-3,5(2H,4H)dione] | 1.13 ± 0.02 | 0.101 ± 0.006 | – | 0.594 ± 0.016 | −0.165 ± 0.029
